# Experimental data as given in patent US7851484B2, “Certain chemical entities, compositions, and methods” (Cytokinetics, Inc., priority 2007, dated 2010).
# Test system: SKM MF
# Assay: SKM MF AC1.4: ATPase screen of skeletal sarcomeric proteins with PK/LDH coupled enzyme system
# Format: biochemical
# Parameters: AC1.4 Median: unit not given here
# Details: not given
# Experimental: For example, test compounds can be assayed in a highly parallel fashion by using multiwell plates by placing the compounds either individually in wells or testing them in mixtures. Assay components including the target protein complex, coupling enzymes and substrates, and ATP can then be added to the wells and the absorbance or fluorescence of each well of the plate can be measured with a plate reader.
# In some embodiments, the method uses a 384 well plate format and a 25 μL reaction volume. A pyruvate kinase/lactate dehydrogenase coupled enzyme system (Huang T G and Hackney D D. (1994) J Biol Chem 269(23):16493-501) can be used to measure the rate of ATP hydrolysis in each well. As will be appreciated by those in the art, the assay components are added in buffers and reagents. The incubation periods can be optimized to give adequate detection signals over the background. The assay can be done in real time giving the kinetics of ATP hydrolysis which increases the signal to noise ratio of the assay.
# Just prior to screening, the actin, tropomyosin, and troponin complex are mixed together in the desired ratio (e.g., 7:1:1) to achieve maximal calcium regulation of the actin filament. The screen is conducted at a pCa=6.5. This calcium concentration is in the physiological range during muscle contraction.
# To measure the generation of ADP during the reaction, a pyruvate kinase/lactate dehydrogenase/NADH coupled enzyme system (PK/LDH) is added to the actin. The myosin is kept separately. The plates are read in real time so that kinetic curves are obtained. These compounds are in DMSO and were already spotted onto the bottoms of 384 well plates at 10 to 40 μg/ml final concentration.
row,SKM MF AC1.4 [µM],Compound
1,0.9,"CCC(CC)n1c(O)nc2ncc(Br)cc21 [6-bromo-1-(pentan-3-yl)-1H-imidazo[4,5-b]pyridin-2-ol]"

# Same assay, conditions: median
row,AC1.4 Median,Compound
1,3.7477,"CCCC(CCC)n1c(O)nc2ncc(Cl)cc21 [6-chloro-1-(propylbutyl)imidazo[4,5-b]pyridin-2-ol]"
2,8.4752,"CCC(CO)n1c(O)nc2ncc(Cl)cc21 (stereo not shown) [6-chloro-1-(1-ethyl-2-hydroxyethyl)imidazo[4,5-b]pyridin-2-ol]"
3,8.0408,"Oc1nc2ncc(Cl)cc2n1CCCC(F)(F)F [6-chloro-1-[(trifluoromethyl)propyl]imidazo[4,5-b]pyridin-2-ol]"
4,17.1735,"methyl 1-(ethylpropyl)-2-hydroxyimidazo[4,5-b]pyridine-7-carboxylate"
5,8.6854,"CCC(CC)n1c(O)nc2nc(Cl)c(Cl)cc21 [5,6-dichloro-1-(ethylpropyl)imidazo[4,5-b]pyridin-2-ol]"
6,41.9678,"CCc1cnc2nc(O)n(C(CC)CC)c2c1 [6-ethyl-1-(pentan-3-yl)-1H-imidazo[4,5-b]pyridin-2-ol]"
7,1.1739,"CCC(CC)n1c(O)nc2ncc(Br)cc21 [6-bromo-1-(pentan-3-yl)-1H-imidazo[4,5-b]pyridin-2-ol]"
8,12.9347,"CCC(CC)n1c(O)nc2ncc(F)cc21 [6-fluoro-1-(pentan-3-yl)-1H-imidazo[4,5-b]pyridin-2-ol]"
9,2.0265,"1-(ethylpropyl)-6-ethynyl-7-methylimidazo[4,5-b]pyridin-2-ol"
10,3.9463,"CCC(CC)n1c(O)nc2ncc(Cl)c(C)c21 [6-chloro-1-(ethylpropyl)-7-methylimidazo[4,5-b]pyridin-2-ol]"
11,11.7273,"CCOC(=O)CSSCc1c(Cl)cnc2nc(O)n(C(CC)CC)c12 [ethyl 2-({[6-chloro-1-(ethylpropyl)-2-hydroxyimidazo[4,5-b]pyridin-7-yl]methyl}disulfanyl)acetate]"
12,24.0256,"1-(ethylpropyl)-6-methoxyimidazo[4,5-b]pyridin-2-ol"

# Continued, compound first:
row,Compound,AC1.4 Median
1,"CC(C)(Cc1ccccc1)n1c(O)nc2ncc(Cl)cc21 [1-(1,1-dimethyl-2-phenylethyl)-6-chloroimidazo[4,5-b]pyridin-2-ol]",8.2080
2,"1-(ethylpropyl)-6-prop-1-ynylimidazo[4,5-b]pyridin-2-ol",27.8274
3,"CC[C@H](CN=[N+]=[N-])n1c(O)nc2ncc(Cl)cc21 [1-((1R)-3-diazo-1-ethyl-3-azaprop-3-enyl)-6-chloroimidazo[4,5-b]pyridin-2-ol]",11.2261
4,"1-(ethylpropyl)-6-(2-methylprop-1-enyl)imidazo[4,5-b]pyridin-2-ol",35.3882
5,"CCC(CC)n1c(O)nc2ncc(Cl)c(/C=N/OCc3ccccc3)c21 [7-[(1E)-2-(phenylmethoxy)-2-azavinyl]-6-chloro-1-(ethylpropyl)imidazo[4,5-b]pyridin-2-ol]",39.7159
6,"CCC(CC)n1c(O)nc2ncc(Cl)c(/C=N/OCC(C)C)c21 [7-[(1E)-2-(2-methylpropoxy)-2-azavinyl]-6-chloro-1-(ethylpropyl)imidazo[4,5-b]pyridin-2-ol]",11.4532
7,"CC(C)(C)C(CO)n1c(O)nc2ncc(Cl)cc21 (stereo not shown) [1-[1-(tert-butyl)-2-hydroxyethyl]-6-chloroimidazo[4,5-b]pyridin-2-ol]",48.1977
8,"[1-(ethylpropyl)-6-ethynyl-2-hydroxyimidazo[4,5-b]pyridin-7-yl]-N-methylcarboxamide",6.7023
9,"OC[C@@H](C1CCCCC1)n1c(O)nc2ncc(Cl)cc21 [1-((1R)-1-cyclohexyl-2-hydroxyethyl)-6-chloroimidazo[4,5-b]pyridin-2-ol]",37.7104
10,"CCC(CC)n1c(O)nc2ncc(C(F)(F)F)cc21 [1-(ethylpropyl)-6-(trifluoromethyl)imidazo[4,5-b]pyridin-2-ol]",47.6668

# Same assay, conditions: median value (footnote †)
row,SKM MF AC1.4 (μM),Compound
1,41.9678^† μM,"CCc1cnc2nc(O)n(C(CC)CC)c2c1 [6-ethyl-1-(pentan-3-yl)-1H-imidazo[4,5-b]pyridin-2-ol]"
2,12.9347^† μM,"CCC(CC)n1c(O)nc2ncc(F)cc21 [6-fluoro-1-(pentan-3-yl)-1H-imidazo[4,5-b]pyridin-2-ol]"
